± gives the expanded uncertainty stated by the source.
Settings: Liquid; for mass density: 298.15 K, 101.33 kPa, Pycnometric method; for Normal boiling temperature: Ebulliometric method (Recirculating still)

| mass density [kg/m3] | Normal boiling temperature [°C] | SMILES |
| --- | --- | --- |
| 797.8 ± 0.7 | 107.77 ± 0.05 | CC(C)CO [2-methyl-1-propanol] |
| 805.7 ± 0.7 |  | CCCCO [butan-1-ol] |
| 802.3 ± 0.7 | 99.48 ± 0.05 | CCC(C)O (stereo not drawn) [butan-2-ol] |
| 785.2 ± 0.7 | 78.31 ± 0.05 | CCO [ethanol] |
| 799.6 ± 0.7 | 97.06 ± 0.05 | CCCO [propan-1-ol] |
| 780.8 ± 0.7 | 82.2 ± 0.05 | CC(C)O [propan-2-ol] |

| SMILES | mass density [kg/m3] | Normal boiling temperature [°C] |
| --- | --- | --- |
| CO [methanol] | 786.6 ± 0.7 | 64.49 ± 0.05 |
